The results in this text go back to patent publication EP0908457B1, “3-(1,2-benzisothiazol- and isoxazol-5-Y1)-2,4(1H,3H)-pyrimidinedione or thione and 3-(1,2-benzisothiazol- and isoxazol-5-y1)-4(3H)-pyrimidinone or thione herbicidal agents” (BASF AKTIENGESELLSCHAFT, priority 1997, dated 1999).

The subject of data set [1] is Monochoria vaginalis, Presl. The data set can be described thus: Preemergence weed control under flooded paddy conditions, MOOVA (Monochoria). Format: in vivo. The conditions noted are these: preemergence, flooded paddy, rated three to four weeks after treatment.
The test system of data set [2] is Oryza sativa, (L.) Tebonnet. The data set can be described thus: Rice tolerance to post-transplant applications under flooded paddy conditions (Example 187), ORYSAT (Rice, Tebonnet). The conditions noted are these: rated three to four weeks after treatment.
Data set [3] deals with Cyperus iria. The data set can be described thus: Preemergence weed control under flooded paddy conditions, CYPIR (Rice Flatsedge). Format: in vivo. The conditions noted are these: preemergence, flooded paddy, rated three to four weeks after treatment.
Data set [4] relates to Cyperus serotinus, Rottb. The data set can be described thus: Preemergence weed control under flooded paddy conditions, CYPSE (Flatsedge). Type of data set: in vivo. The conditions noted are these: preemergence, rated three to four weeks after treatment.
Data set [5] relates to Sagittaria pygmaea, L. The data set can be described thus: Preemergence weed control under flooded paddy conditions, SAGPY (Arrowhead (Pygmaea)). Type of data set: in vivo. The conditions noted are these: preemergence, flooded paddy, rated three to four weeks after treatment.
Data set [6] has as its system Echinochloa oryzoides (Ard.) Fritsch. The data set can be described thus: Preemergence weed control under flooded paddy conditions, ECHORC (Watergrass (Calif.)). Type of data set: in vivo. The conditions noted are these: preemergence, flooded paddy, rated three to four weeks after treatment.

On to `CC(C)OC(=O)C(C)(C)c1nsc2ccc(-n3c(=O)cc(C(F)(F)F)n(C)c3=O)cc12` [Example 489, 1,2-Benzisothiazole-3-acetic acid, 5-[3,6-dihydro-3-methyl-2,6-dioxo-4-(trifluoromethyl)-1(2H)-pyrimidinyl]-alpha,alpha-dimethyl-, isopropyl ester], for which the MOOVA herbicidal rating in data set [1] (0.0320 kg/ha), in data set [1] (0.0620 kg/ha), in data set [1] (0.1250 kg/ha) and in data set [1] (0.2500 kg/ha) was 9.0 each time. In addition, the “ORYSAT herbicidal rating (rice tolerance)” value (“ORYSAT herbicidal rating” for short) in data set [2] (0.0320 kg/ha) is on record as 5.0; in data set [2] (0.0620 kg/ha), 6.0; in data set [2] (0.1250 kg/ha), 6.0; in data set [2] (0.2500 kg/ha) it was 6.0. Moreover, the CYPIR herbicidal rating came to 6.0 in data set [3] (0.0320 kg/ha), 9.0 in data set [3] (0.0620 kg/ha), 9.0 in data set [3] (0.1250 kg/ha) and 9.0 in data set [3] (0.2500 kg/ha). In addition, the CYPSE herbicidal rating is on record as 6.0 in data set [4] (0.0320 kg/ha), 7.0 in data set [4] (0.0620 kg/ha), 9.0 in data set [4] (0.1250 kg/ha) and 9.0 in data set [4] (0.2500 kg/ha). Besides, the SAGPY herbicidal rating in data set [5] (0.0320 kg/ha) is given as 6.0; in data set [5] (0.0620 kg/ha), 9.0; in data set [5] (0.1250 kg/ha), 9.0; in data set [5] (0.2500 kg/ha), 9.0. Further, the ECHORC herbicidal rating in data set [6] (0.0320 kg/ha) was found to be 7.0; in data set [6] (0.0620 kg/ha) it was 7.0; in data set [6] (0.1250 kg/ha) it was 9.0; in data set [6] (0.2500 kg/ha), 9.0.
For `COC(=O)C(C)(C)c1nsc2ccc(-n3c(=O)cc(C(F)(F)F)n(C)c3=O)cc12` [Example 490, 1,2-Benzisothiazole-3-acetic acid, 5-[3,6-dihydro-3-methyl-2,6-dioxo-4-(trifluoromethyl)-1(2H)-pyrimidinyl]-alpha,alpha-dimethyl-, methyl ester], the MOOVA herbicidal rating in data set [1] (0.0320 kg/ha), in data set [1] (0.0620 kg/ha), in data set [1] (0.1250 kg/ha) and in data set [1] (0.2500 kg/ha) was 9.0 throughout. For the same molecule, the “ORYSAT herbicidal rating” value in data set [2] (0.0320 kg/ha) is recorded as 7.5; in data set [2] (0.0620 kg/ha), 9.0; in data set [2] (0.1250 kg/ha) it was 8.5; in data set [2] (0.2500 kg/ha) it was 9.0. For the same molecule, the CYPIR herbicidal rating in data set [3] (0.0320 kg/ha), in data set [3] (0.0620 kg/ha), in data set [3] (0.1250 kg/ha) and in data set [3] (0.2500 kg/ha) was 9.0 each time. Besides, the CYPSE herbicidal rating in data set [4] (0.0320 kg/ha), in data set [4] (0.0620 kg/ha), in data set [4] (0.1250 kg/ha) and in data set [4] (0.2500 kg/ha) was 9.0 throughout. The SAGPY herbicidal rating in data set [5] (0.0320 kg/ha) came to 6.0; in data set [5] (0.0620 kg/ha), 9.0; in data set [5] (0.1250 kg/ha), 9.0; in data set [5] (0.2500 kg/ha), 9.0. Moreover, the ECHORC herbicidal rating is listed as 8.0 in data set [6] (0.0320 kg/ha), 9.0 in data set [6] (0.0620 kg/ha), 9.0 in data set [6] (0.1250 kg/ha) and 9.0 in data set [6] (0.2500 kg/ha).
As for `C=CCOC(=O)C(C)(C)c1nsc2ccc(-n3c(=O)cc(C(F)(F)F)n(C)c3=O)cc12` [Example 491, 1,2-Benzisothiazole-3-acetic acid, 5-[3,6-dihydro-3-methyl-2,6-dioxo-4-(trifluoromethyl)-1(2H)-pyrimidinyl]-alpha,alpha-dimethyl-, allyl ester], the MOOVA herbicidal rating in data set [1] (0.0320 kg/ha), in data set [1] (0.0620 kg/ha), in data set [1] (0.1250 kg/ha) and in data set [1] (0.2500 kg/ha) was 9.0 in each case. The “ORYSAT herbicidal rating” value in data set [2] (0.0320 kg/ha) worked out at 5.0; in data set [2] (0.0620 kg/ha), 6.5; in data set [2] (0.1250 kg/ha) it was 8.0; in data set [2] (0.2500 kg/ha) it was 7.5. The CYPIR herbicidal rating in data set [3] (0.0320 kg/ha) amounted to 7.5; in data set [3] (0.0620 kg/ha), 9.0; in data set [3] (0.1250 kg/ha) it was 9.0; in data set [3] (0.2500 kg/ha), 9.0. For the same molecule, the CYPSE herbicidal rating in data set [4] (0.0320 kg/ha) was found to be 7.0; in data set [4] (0.0620 kg/ha), 9.0; in data set [4] (0.1250 kg/ha) it was 9.0; in data set [4] (0.2500 kg/ha), 9.0. Also, the SAGPY herbicidal rating worked out at 5.0 in data set [5] (0.0320 kg/ha), 5.5 in data set [5] (0.0620 kg/ha), 9.0 in data set [5] (0.1250 kg/ha) and 9.0 in data set [5] (0.2500 kg/ha). The ECHORC herbicidal rating in data set [6] (0.0320 kg/ha), in data set [6] (0.0620 kg/ha), in data set [6] (0.1250 kg/ha) and in data set [6] (0.2500 kg/ha) was 9.0 each time.
Consider `COC(=O)C(C)Oc1cc(Cl)c(C)cc1-c1nsc2ccc(-n3c(=O)cc(C(F)(F)F)n(C)c3=O)cc12` (centres unmarked) [Example 492, Propionic acid, 2-{{5-chloro-2-{5-[3,6-dihydro-3-methyl-2,6-dioxo-4-(trifluoromethyl)-1(2H)-pyrimidinyl]-1,2-benzisothiazol-3-yl}-p-tolyl}oxy}-, methyl ester], for which the MOOVA herbicidal rating amounted to 6.0 in data set [1] (0.0320 kg/ha), 6.0 in data set [1] (0.0620 kg/ha), 7.0 in data set [1] (0.1250 kg/ha) and 7.0 in data set [1] (0.2500 kg/ha). In addition, the “ORYSAT herbicidal rating” value in data set [2] (0.0320 kg/ha) amounted to 2.0; in data set [2] (0.0620 kg/ha), 2.0; in data set [2] (0.1250 kg/ha), 2.0; in data set [2] (0.2500 kg/ha), 3.0. The CYPIR herbicidal rating is reported as 4.0 in data set [3] (0.0320 kg/ha), 4.0 in data set [3] (0.0620 kg/ha), 4.0 in data set [3] (0.1250 kg/ha) and 5.0 in data set [3] (0.2500 kg/ha). Further, the CYPSE herbicidal rating in data set [4] (0.2500 kg/ha) was determined as 0.0. Further, the SAGPY herbicidal rating amounted to 0.0 in data set [5] (0.0320 kg/ha), 0.0 in data set [5] (0.0620 kg/ha), 0.0 in data set [5] (0.1250 kg/ha) and 2.0 in data set [5] (0.2500 kg/ha). Also, the ECHORC herbicidal rating is on record as 4.0 in data set [6] (0.0320 kg/ha), 6.0 in data set [6] (0.0620 kg/ha), 6.0 in data set [6] (0.1250 kg/ha) and 9.0 in data set [6] (0.2500 kg/ha).
As for `COC(=O)COc1cc(Cl)c(C)cc1-c1nsc2ccc(-n3c(=O)cc(C(F)(F)F)n(C)c3=O)cc12` [Example 493, Acetic acid, {{5-chloro-2-{5-[3,6-dihydro-3-methyl-2,6-dioxo-4-(trifluoromethyl)-1(2H)-pyrimidinyl]-1,2-benzisothiazol-3-yl}-p-tolyl}oxy}-, methyl ester], the MOOVA herbicidal rating in data set [1] (0.0320 kg/ha) is recorded as 5.0; in data set [1] (0.0620 kg/ha), 7.0; in data set [1] (0.1250 kg/ha), 7.0; in data set [1] (0.2500 kg/ha) it was 9.0. For the same molecule, the “ORYSAT herbicidal rating” value in data set [2] (0.0320 kg/ha) is listed as 2.0; in data set [2] (0.0620 kg/ha), 2.0; in data set [2] (0.1250 kg/ha), 3.0; in data set [2] (0.2500 kg/ha), 3.0. In addition, the CYPIR herbicidal rating in data set [3] (0.0320 kg/ha) is 4.0; in data set [3] (0.0620 kg/ha), 6.0; in data set [3] (0.1250 kg/ha) it was 7.0; in data set [3] (0.2500 kg/ha), 9.0. The CYPSE herbicidal rating in data set [4] (0.1250 kg/ha) and in data set [4] (0.2500 kg/ha) was 9.0 in each case. Also, the SAGPY herbicidal rating is 0.0 in data set [5] (0.0320 kg/ha), 0.0 in data set [5] (0.0620 kg/ha), 0.0 in data set [5] (0.1250 kg/ha) and 3.0 in data set [5] (0.2500 kg/ha). The ECHORC herbicidal rating in data set [6] (0.0320 kg/ha) is 4.0; in data set [6] (0.0620 kg/ha) it was 5.0; in data set [6] (0.1250 kg/ha), 9.0; in data set [6] (0.2500 kg/ha), 9.0.
As for `CN(C(=O)c1nsc2ccc(-n3c(=O)cc(C(F)(F)F)n(C)c3=O)cc12)S(=O)(=O)Cc1ccccc1` [Example 494, 1,2-Benzisothiazole-3-carboxamide, N-(benzylsulfonyl)-5-[3,6-dihydro-3-methyl-2,6-dioxo-4-(trifluoromethyl)-1(2H)-pyrimidinyl]-N-methyl-], the MOOVA herbicidal rating in data set [1] (0.0320 kg/ha) is given as 4.0; in data set [1] (0.0620 kg/ha) it was 4.0; in data set [1] (0.1250 kg/ha), 5.0; in data set [1] (0.2500 kg/ha), 6.0. Also, the “ORYSAT herbicidal rating” value in data set [2] (0.0320 kg/ha), in data set [2] (0.0620 kg/ha), in data set [2] (0.1250 kg/ha) and in data set [2] (0.2500 kg/ha) was 0.0 throughout. Besides, the CYPIR herbicidal rating in data set [3] (0.0320 kg/ha) was 3.0; in data set [3] (0.0620 kg/ha) it was 4.0; in data set [3] (0.1250 kg/ha) it was 5.0; in data set [3] (0.2500 kg/ha), 5.0. Also, the CYPSE herbicidal rating in data set [4] (0.1250 kg/ha) came to 0.0; in data set [4] (0.2500 kg/ha) it was 3.0. Further, the SAGPY herbicidal rating worked out at 0.0 in data set [5] (0.0320 kg/ha), 0.0 in data set [5] (0.0620 kg/ha), 0.0 in data set [5] (0.1250 kg/ha) and 3.0 in data set [5] (0.2500 kg/ha). The ECHORC herbicidal rating in data set [6] (0.0320 kg/ha) stood at 0.0; in data set [6] (0.0620 kg/ha), 2.0; in data set [6] (0.1250 kg/ha), 3.0; in data set [6] (0.2500 kg/ha), 3.0.
